Measurements as given in ChEMBL document CHEMBL1944563, “Separation of Betti Reaction Product Enantiomers: Absolute Configuration and Inhibition of Botulinum Neurotoxin A” (ACS Med Chem Lett, 2011).

Assays:
[1] = biological target: Botulinum neurotoxin type A (Clostridium botulinum (strain Hall / ATCC 3502 / NCTC 13319 / Type A)) (UniProt P0DPI1); assay: Inhibition of Clostridium botulinum Hall BoNT/A-induced toxicity in mouse Neuro2a cells assessed as inhibition of SNAP25 substrate cleavage at 30 uM by Western blotting; type: cell-based; conditions: Clostridium botulinum A str. Hall
[2] = biological target: Botulinum neurotoxin type A (Clostridium botulinum (strain Hall / ATCC 3502 / NCTC 13319 / Type A), UniProt P0DPI1); assay: Inhibition of Clostridium botulinum Hall BoNT/A light chain using SNAP-25 (187 to 203) as substrate by HPLC analysis; parameters: species or system Clostridium botulinum A str. Hall
[3] = biological target: Botulinum neurotoxin type A (Clostridium botulinum (strain Hall / ATCC 3502 / NCTC 13319 / Type A)) (UniProt P0DPI1); assay: Inhibition of Clostridium botulinum Hall BoNT/A light chain using SNAP-25 (187 to 203) as substrate at 5 uM by HPLC analysis; conditions: Clostridium botulinum A str. Hall
[4] = biological target: Botulinum neurotoxin type A (Clostridium botulinum (strain Hall / ATCC 3502 / NCTC 13319 / Type A)) (UniProt P0DPI1); assay: Inhibition of Clostridium botulinum Hall BoNT/A-induced toxicity in mouse Neuro2a cells assessed as inhibition of SNAP25 substrate cleavage at 45 uM by Western blotting; type: cell-based; conditions: Clostridium botulinum A str. Hall
[5] = biological target: Botulinum neurotoxin type A (Clostridium botulinum (strain Hall / ATCC 3502 / NCTC 13319 / Type A)) (UniProt P0DPI1); assay: Inhibition of Clostridium botulinum Hall BoNT/A-induced toxicity in mouse Neuro2a cells assessed as inhibition of SNAP25 substrate cleavage at 60 uM by Western blotting; type: cell-based; conditions: Clostridium botulinum A str. Hall
[6] = biological target: Botulinum neurotoxin type A (Clostridium botulinum (strain Hall / ATCC 3502 / NCTC 13319 / Type A)) (UniProt P0DPI1); assay: Inhibition of Clostridium botulinum Hall BoNT/A-induced toxicity in mouse Neuro2a cells assessed as inhibition of SNAP25 substrate cleavage at 15 uM by Western blotting; type: cell-based; conditions: Clostridium botulinum A str. Hall
[7] = biological target: Botulinum neurotoxin type A (Clostridium botulinum (strain Hall / ATCC 3502 / NCTC 13319 / Type A)) (UniProt P0DPI1); assay: Inhibition of Clostridium botulinum Hall BoNT/A light chain using SNAP-25 (187 to 203) as substrate at 20 uM by HPLC analysis; conditions: Clostridium botulinum A str. Hall
[8] = biological target: Botulinum neurotoxin type A (Clostridium botulinum (strain Hall / ATCC 3502 / NCTC 13319 / Type A)) (UniProt P0DPI1); assay: Inhibition of Clostridium botulinum Hall BoNT/A-induced paralysis in mouse phrenic nerve hemidiaphragm assessed as time required for loss of 50% twitch tension at 2 uM; conditions: Clostridium botulinum A str. Hall
[9] = biological target: Botulinum neurotoxin type A (Clostridium botulinum (strain Hall / ATCC 3502 / NCTC 13319 / Type A)) (UniProt P0DPI1); assay: Inhibition of Clostridium botulinum Hall BoNT/A-induced paralysis in mouse phrenic nerve hemidiaphragm assessed as delay in paralytic half-time at 2 uM relative to control; conditions: Clostridium botulinum A str. Hall

Sequence of Botulinum neurotoxin type A (Clostridium botulinum (strain Hall / ATCC 3502 / NCTC 13319 / Type A)) (P0DPI1 2-448 limits assumed): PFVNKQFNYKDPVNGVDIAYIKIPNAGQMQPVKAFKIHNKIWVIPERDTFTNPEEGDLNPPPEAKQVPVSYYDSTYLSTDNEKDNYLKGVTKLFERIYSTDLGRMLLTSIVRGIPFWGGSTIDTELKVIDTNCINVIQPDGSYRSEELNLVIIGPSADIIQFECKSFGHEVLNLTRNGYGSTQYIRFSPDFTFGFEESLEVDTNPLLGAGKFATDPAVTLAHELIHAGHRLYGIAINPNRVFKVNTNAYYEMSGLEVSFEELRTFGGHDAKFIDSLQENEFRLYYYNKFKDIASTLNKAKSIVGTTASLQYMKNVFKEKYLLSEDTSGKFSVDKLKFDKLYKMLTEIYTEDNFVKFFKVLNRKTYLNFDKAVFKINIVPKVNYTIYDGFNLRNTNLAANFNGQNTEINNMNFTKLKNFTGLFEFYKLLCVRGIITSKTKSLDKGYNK
Sequence of Botulinum neurotoxin type A (P0DPI1 2-448 limits assumed): as above

Row | SMILES | inhibition [1] | IC50 [2] | inhibition [3] | inhibition [4] | inhibition [5] | inhibition [6] | inhibition [7] | TIME [8] | fold change (FC) [9]
1 | Oc1c(C(Nc2ccccn2)c2ccccc2)cc(Cl)c2cccnc12 (racemic) | 74% | 1500 nM | 88% | 90% | 91% | 41% | 92% | – | –
2 | Oc1c([C@H](Nc2ccccn2)c2ccccc2)cc(Cl)c2cccnc12 | 89% | 1100 nM | 90% | 94% | 96% | 56% | 94% | 3.18 h | 3
3 | Oc1c([C@@H](Nc2ccccn2)c2ccccc2)cc(Cl)c2cccnc12 | 69% | 1000 nM | 90% | 93% | 96% | 54% | 91% | 3.13 h | 3
